# In US20110150961A1, “ANTI-INFECTIVE CATHETERS” (priority 2008, published 2011):
# Where two headings read alike, the source gives them in different places.
# Columns and labels:
# Type in all cases: cell-based
# [1] = test system: P. aeruginosa; assay: Multi-organism zone-of-inhibition screening (Example 15); details: 24 hr, one sample per plate, antibiotic disks 6 mm (Gentamicin 10 μg, penicillin 10 units)
# Procedure: (§1) The 5-FU CVC was compared with the commercially available Arrow CVC. Gentamicin (10 μg) or penicillin (10 units) disks were used as positive controls and CVC was used as the negative control. The samples were challenged with 3 species of Gram-positive bacteria, 4 species of Gram-negative bacteria and 1 type of yeast. The organisms used to challenge the samples were the following ATCC strains: S. aureus, Methicillin Resistant Staphylococcus aureus (MRSA), S. epidermidis, K. pneumoniae, and Vancomycin Resistant Pediococcus (VRP), E. coli, P. aeruginosa and C. albicans.
# (§2) Organisms were inoculated into 2 mL of liquid agar, which was poured on top of solidified agar. One plate was made per organism. Test articles were inserted into the agar when the plates were solidified and dry. ZOI results were recorded at 24 hr. Three 0.5-cm sections of the 5-FU CVC were tested on each plate. Each plate also contained one negative and one positive control sample and 1 Arrow CVC sample.
# [2] = test system: Methicillin Resistant Staphylococcus aureus (MRSA); assay: as above; details: 24 hr, one sample per plate, antibiotic disks 6 mm (Gentamicin 10 μg, penicillin 10 units)
# Procedure: as §1
# as §2, with “Three 0.5-cm sections of the 5-FU CVC were tested on each plate.” left out
# [3] = test system: E. coli; assay: as above; details: 24 hr, one sample per plate, antibiotic disks 6 mm (Gentamicin 10 μg, penicillin 10 units)
# Procedure: as §1
# as §2, with “Three 0.5-cm sections of the 5-FU CVC were tested on each plate.” left out
# [4] = test system: K. pneumoniae; assay: as above; details: 24 hr, one sample per plate, antibiotic disks 6 mm (Gentamicin 10 μg, penicillin 10 units)
# Procedure: as §1
# as §2, with “Three 0.5-cm sections of the 5-FU CVC were tested on each plate.” left out
# [5] = test system: S. aureus; assay: MIC testing by broth microdilution, clinical isolates (Example 4); details: Staphylococcus aureus
# Procedure: (§3) The Gram-positive organisms tested were S. epidermidis, methicillin resistant S. epidermidis (MRSE), S. aureus, methicillin resistant S. aureus (MRSA), E. faecalis and vancomycin resistant E. faecalis, the Gram-negative organisms tested were P. aeruginosa, E. coli and K. pneumoniae .
# (§4) For MIC testing, all isolates were tested against 5-FU by broth microdilution following CLSI methodology (M7-A7).
# [6] = test system: P. aeruginosa; assay: as above; details: Pseudomonas aeruginosa, N=100
# Procedure: as §3, §4
# [7] = test system: S. epidermidis; assay: as above; details: Staphylococcus epidermidis
# Procedure: as §3, §4
# [8] = test system: E. coli; assay: as above; details: Escherichia coli, N=102
# Procedure: as §3, §4
# [9] = test system: E. faecalis; assay: as above
# Procedure: as §3, §4
# [10] = test system: K. pneumoniae; assay: as above; details: Klebsiella pneumoniae, N=104
# Procedure: as §3, §4
Compound,ZOI [1],ZOI [2],ZOI [3],ZOI [4],"MIC90 ([5]; Oxacillin-R, N=40)","MIC90 ([5]; Oxacillin-S, N=61)","MIC90 ([5]; all, N=101)",MIC90 [6],"MIC90 ([7]; Oxacillin-R, N=78)","MIC90 ([7]; Oxacillin-S, N=22)","MIC90 ([7]; all, N=100)",MIC90 [8],"MIC90 ([9]; Enterococcus faecalis, all, N=101, read-out: MIC90)","MIC90 ([9]; Vancomycin-R, N=21)","MIC90 ([9]; Vancomycin-S, N=80)",MIC90 [10]
Gentamicin,12.5 mm,7.1 mm,10.5 mm,9.5 mm,–,–,–,–,–,–,–,–,–,–,–,–
C[C@H]1COc2c(N3CCN(C)CC3)c(F)cc3c(=O)c(C(=O)O)cn1c23 [Levofloxacin],–,–,–,–,32 µg/mL,16 µg/mL,32 µg/mL,32 µg/mL,> 128 µg/mL,128 µg/mL,> 128 µg/mL,16 µg/mL,64 µg/mL,64 µg/mL,64 µg/mL,0.12 µg/mL
